Source: patent US10898475B2, “Bach1 inhibitors in combination with Nrf2 activators and pharmaceutical compositions thereof” (vTv Therapeutics LLC, priority 2014, dated 2021)

Tested on: HMOX1 in Normal Human Lung Fibroblasts (NHLF)
Assay: HMOX1 Protein Expression (immunostaining, fold induction or % positive cells over DMSO)
Details: for Hill slope of DMF dose response curves in Table 2: % Positive HMOX

COCCNC(=O)c1cnc2c(c1)nc(Nc1nc3ccc(OC(F)(F)F)cc3s1)n2C [HPP-B, 3-Methyl-2-(6-trifluoromethoxy-benzothiazol-2-ylamino)-3H-imidazo[4,5-b]pyridine-6-carboxylic acid (2-methoxy-ethyl)-amide]
Hill slope of DMF dose response curves in Table 2 (Bach1 Inhibitor Conc. 0.019 uM): 2.14 | Hill slope of DMF dose response curves in Table 2 (Bach1 Inhibitor Conc. 0.039 uM): 1.87 | Hill slope of DMF dose response curves in Table 2 (Bach1 Inhibitor Conc. 0.078 uM): 1.25 | Hill slope of DMF dose response curves in Table 2 (Bach1 Inhibitor Conc. 0.156 uM): 1.12 | % Cells Positive HMOX (Cpd. 0.019 uM, DMF 0 uM): 2.31% | Fold Induction of HMOX (Cpd. 0.019 uM, DMF 0 uM): 1.24 fold | % Cells Positive HMOX (Cpd. 0.019 uM, DMF 0.03 uM): 1.80% | Fold Induction of HMOX (Cpd. 0.019 uM, DMF 0.03 uM): 1.17 fold | % Cells Positive HMOX (Cpd. 0.019 uM, DMF 0.1 uM): 2.55% | Fold Induction of HMOX (Cpd. 0.019 uM, DMF 0.1 uM): 1.13 fold | % Cells Positive HMOX (Cpd. 0.019 uM, DMF 0.3 uM): 8.27% | Fold Induction of HMOX (Cpd. 0.019 uM, DMF 0.3 uM): 1.43 fold | % Cells Positive HMOX (Cpd. 0.019 uM, DMF 1 uM): 7.52% | Fold Induction of HMOX (Cpd. 0.019 uM, DMF 1 uM): 1.57 fold | % Cells Positive HMOX (Cpd. 0.019 uM, DMF 3 uM): 54.65% | Fold Induction of HMOX (Cpd. 0.019 uM, DMF 3 uM): 2.98 fold | % Cells Positive HMOX (Cpd. 0.019 uM, DMF 10 uM): 92.63% | Fold Induction of HMOX (Cpd. 0.019 uM, DMF 10 uM): 4.94 fold | % Cells Positive HMOX (Cpd. 0.019 uM, DMF 30 uM): 84.93% | Fold Induction of HMOX (Cpd. 0.019 uM, DMF 30 uM): 4.23 fold | % Cells Positive HMOX (Cpd. 0.039 uM, DMF 0 uM): 5.30% | Fold Induction of HMOX (Cpd. 0.039 uM, DMF 0 uM): 1.45 fold | % Cells Positive HMOX (Cpd. 0.039 uM, DMF 0.03 uM): 1.53% | Fold Induction of HMOX (Cpd. 0.039 uM, DMF 0.03 uM): 1.07 fold | % Cells Positive HMOX (Cpd. 0.039 uM, DMF 0.1 uM): 2.54% | Fold Induction of HMOX (Cpd. 0.039 uM, DMF 0.1 uM): 1.08 fold | % Cells Positive HMOX (Cpd. 0.039 uM, DMF 0.3 uM): 13.04% | Fold Induction of HMOX (Cpd. 0.039 uM, DMF 0.3 uM): 1.59 fold | % Cells Positive HMOX (Cpd. 0.039 uM, DMF 1 uM): 23.13% | Fold Induction of HMOX (Cpd. 0.039 uM, DMF 1 uM): 1.97 fold | % Cells Positive HMOX (Cpd. 0.039 uM, DMF 3 uM): 75.79% | Fold Induction of HMOX (Cpd. 0.039 uM, DMF 3 uM): 2.84 fold | % Cells Positive HMOX (Cpd. 0.039 uM, DMF 10 uM): 91.99% | Fold Induction of HMOX (Cpd. 0.039 uM, DMF 10 uM): 4.86 fold | % Cells Positive HMOX (Cpd. 0.039 uM, DMF 30 uM): 87.54% | Fold Induction of HMOX (Cpd. 0.039 uM, DMF 30 uM): 4.82 fold | % Cells Positive HMOX (Cpd. 0.078 uM, DMF 0 uM): 8.23% | Fold Induction of HMOX (Cpd. 0.078 uM, DMF 0 uM): 1.46 fold | % Cells Positive HMOX (Cpd. 0.078 uM, DMF 0.03 uM): 1.72% | Fold Induction of HMOX (Cpd. 0.078 uM, DMF 0.03 uM): 1.12 fold | % Cells Positive HMOX (Cpd. 0.078 uM, DMF 0.1 uM): 7.05% | Fold Induction of HMOX (Cpd. 0.078 uM, DMF 0.1 uM): 1.21 fold | % Cells Positive HMOX (Cpd. 0.078 uM, DMF 0.3 uM): 10.31% | Fold Induction of HMOX (Cpd. 0.078 uM, DMF 0.3 uM): 1.43 fold | % Cells Positive HMOX (Cpd. 0.078 uM, DMF 1 uM): 29.42% | Fold Induction of HMOX (Cpd. 0.078 uM, DMF 1 uM): 2.29 fold | % Cells Positive HMOX (Cpd. 0.078 uM, DMF 3 uM): 55.22% | Fold Induction of HMOX (Cpd. 0.078 uM, DMF 3 uM): 3.12 fold | % Cells Positive HMOX (Cpd. 0.078 uM, DMF 10 uM): 94.55% | Fold Induction of HMOX (Cpd. 0.078 uM, DMF 10 uM): 5.06 fold | % Cells Positive HMOX (Cpd. 0.078 uM, DMF 30 uM): 86.84% | Fold Induction of HMOX (Cpd. 0.078 uM, DMF 30 uM): 4.52 fold | % Cells Positive HMOX (Cpd. 0.156 uM, DMF 0 uM): 11.32% | Fold Induction of HMOX (Cpd. 0.156 uM, DMF 0 uM): 1.96 fold | % Cells Positive HMOX (Cpd. 0.156 uM, DMF 0.03 uM): 8.51% | Fold Induction of HMOX (Cpd. 0.156 uM, DMF 0.03 uM): 1.46 fold | % Cells Positive HMOX (Cpd. 0.156 uM, DMF 0.1 uM): 18.49% | Fold Induction of HMOX (Cpd. 0.156 uM, DMF 0.1 uM): 1.73 fold | % Cells Positive HMOX (Cpd. 0.156 uM, DMF 0.3 uM): 30.11% | Fold Induction of HMOX (Cpd. 0.156 uM, DMF 0.3 uM): 2.06 fold | % Cells Positive HMOX (Cpd. 0.156 uM, DMF 1 uM): 57.70% | Fold Induction of HMOX (Cpd. 0.156 uM, DMF 1 uM): 2.87 fold | % Cells Positive HMOX (Cpd. 0.156 uM, DMF 3 uM): 79.63% | Fold Induction of HMOX (Cpd. 0.156 uM, DMF 3 uM): 3.63 fold | % Cells Positive HMOX (Cpd. 0.156 uM, DMF 10 uM): 99.72% | Fold Induction of HMOX (Cpd. 0.156 uM, DMF 10 uM): 5.58 fold | % Cells Positive HMOX (Cpd. 0.156 uM, DMF 30 uM): 98.17% | Fold Induction of HMOX (Cpd. 0.156 uM, DMF 30 uM): 4.99 fold | combination effect in terms of the % HMOX positive cells (combination with DMF at concentrations below their maximum effect (Table 2)): additive or greater than additive | change of Hill slope of the DMF dose response curve (FIG. 5) (upon increasing amounts of the Bach1 Inhibitor): reduced
